Measured values as given in a flash point compilation (Sun et al. 2020).

C[C@@H]1CC(=O)[C@@H](C)C1 (relative stereo) [trans-2,4-dimethylcyclopentanone] gave a flash point of 42 °C.
In the case of C[C@@H]1CC(=O)C[C@H]1C (relative stereo) [trans-3,4-dimethylcyclopentanone], the flash point is reported as 41 °C.
In the case of C=C(Cl)Cl [1,1-dichloroethene], the flash point is reported as -25 °C.
With CCC(Cl)Cl [1,1-dichloropropane] the flash point was 7 °C.
For CC1(C)CCCC1 [1,1-dimethylcyclopentane], the flash point was -16 °C.
c1ccc2c(c1)CCCC2 [1,2,3,4-tetrahydronaphthalene] showed a flash point of 71 °C.
For Cc1cc(C)c(C)c(C)c1 [1,2,3,5-tetramethylbenzene], the flash point was 63 °C.
In the case of COc1ccccc1OC [1,2-dimethoxybenzene], the flash point is reported as 87 °C.
Work on CCCc1cccc(C)c1C [1,2-dimethyl-3-propylbenzene] yielded a flash point of 72 °C.
Work on CC(O)CO (configuration not stated) [1,2-propanediol] yielded a flash point of 99 °C.
CC(O)CCO (configuration not stated) [1,3-butanediol] gave a flash point of 109 °C.
With C1=CCCC=C1 [1,3-cyclohexadiene] the flash point was -16 °C.
Work on CC(Cl)CCCl (configuration not stated) [1,3-dichlorobutane] yielded a flash point of 31 °C.
In the case of C1COCO1 [1,3-dioxolane], the flash point is reported as -6 °C.
In the case of OCCCCO [1,4-butanediol], the flash point is reported as 121 °C.
In the case of N#CCCCCC#N [1,4-dicyanobutane], the flash point is reported as 159 °C.
For CC(C)c1ccc(C(C)C)cc1 [1,4-diisopropylbenzene], the flash point was 76 °C.
In the case of C=CCCCC=C [1,6-heptadiene], the flash point is reported as -10 °C.
Work on C#CCCCC#C [1,6-heptadiyne] yielded a flash point of 9 °C.
C=CCCCCC=C [1,7-octadiene] gave a flash point of 5 °C.
In the case of C#CCCCCC#C [1,7-octadiyne], the flash point is reported as 23 °C.
CCc1ccccc1Br [1-bromo-2-ethylbenzene] gave a flash point of 79 °C.
Compound CCCCBr [1-bromobutane] has a flash point of 10 °C.
In the case of CCCCCCBr [1-bromohexane], the flash point is reported as 47 °C.
CCCBr [1-bromopropane] gave a flash point of -4 °C.
Work on CCCCS [1-butanethiol] yielded a flash point of 2 °C.
CC(C)CCl [1-chloro-2-methylpropane] showed a flash point of -17 °C.
CCc1ccc(Cl)cc1 [1-chloro-4-ethylbenzene] gave a flash point of 62 °C.
CCCCCCCCl [1-chloroheptane] gave a flash point of 41 °C.
CCCCCCCl [1-chlorohexane] gave a flash point of 26 °C.
CCCCCCCCCCl [1-chlorononane] gave a flash point of 74 °C.
CCCCCCCCCCN [1-decanamine] gave a flash point of 85 °C.
CCCCCCCCCCO [1-decanol] gave a flash point of 108 °C.
For CCCCCCCCCCCCO [1-dodecanol], the flash point was 127 °C.
C#CCCCCCCCCCC [1-dodecyne] showed a flash point of 79 °C.
CCc1cccc(C)c1C [1-ethyl-2,3-dimethylbenzene] showed a flash point of 65 °C.
In the case of CCc1ccc(C)cc1C [1-ethyl-2,4-dimethylbenzene], the flash point is reported as 57 °C.
Compound CCc1cccc(C(C)C)c1 [1-ethyl-3-isopropylbenzene] has a flash point of 63 °C.
With CCc1ccc(F)cc1 [1-ethyl-4-fluorobenzene] the flash point was 30 °C.
CCN1CCCCC1 [1-ethylpiperidine] gave a flash point of 18 °C.
In the case of Cc1cc(C)cc(F)c1 [1-fluoro-3,5-dimethylbenzene], the flash point is reported as 35 °C.
Work on CCCCCCCS [1-heptanethiol] yielded a flash point of 46 °C.
With CCCCCCCO [1-heptanol] the flash point was 70 °C.
With C=CCCCCCCCCCCCCCC [1-hexadecene] the flash point was 129 °C.
CCCCCCS [1-hexanethiol] showed a flash point of 30 °C.
In the case of Cc1cccc(I)c1 [1-iodo-3-methylbenzene], the flash point is reported as 83 °C.
For CCCCCCCI [1-iodoheptane], the flash point was 79 °C.
Work on CCCCCCI [1-iodohexane] yielded a flash point of 61 °C.
Work on CCCCCCCCI [1-iodooctane] yielded a flash point of 95 °C.
With Cn1cccc1 [1-methylpyrrole] the flash point was 15 °C.
In the case of CCCC[N+](=O)[O-] [1-nitrobutane], the flash point is reported as 47 °C.
Work on CCCCCC[N+](=O)[O-] [1-nitrohexane] yielded a flash point of 72 °C.
With CCCCC[N+](=O)[O-] [1-nitropentane] the flash point was 61 °C.
In the case of CCCCCCCCCS [1-nonanethiol], the flash point is reported as 79 °C.
With C=CCCCCCCC [1-nonene] the flash point was 25 °C.
C#CCCCCCCC [1-nonyne] gave a flash point of 33 °C.
C=CCCCCCCCCCCCCCCCC [1-octadecene] gave a flash point of 154 °C.
For CCCCCCCCS [1-octanethiol], the flash point was 68 °C.
For CCC(=O)Cc1ccccc1 [1-phenyl-2-butanone], the flash point was 91 °C.
CCC(C)Cc1ccccc1 (configuration not stated) [1-phenyl-2-methylbutane] gave a flash point of 64 °C.
In the case of CC(=O)OC(C)c1ccccc1 (configuration not stated) [1-phenylethylacetate], the flash point is reported as 91 °C.
CCC(=O)OC(C)c1ccccc1 (configuration not stated) [1-phenylethylpropionate] gave a flash point of 106 °C.
Work on CCCS [1-propanethiol] yielded a flash point of -14 °C.
In the case of CCCO [1-propanol], the flash point is reported as 23 °C.
With CCCCCCCCCCCS [1-undecanethiol] the flash point was 109 °C.
With C=CCCCCCCCCC [1-undecene] the flash point was 54 °C.
CC(C)(C)C(C)(C)C [2,2,3,3-tetramethylbutane] gave a flash point of -0 °C.
For CCCC(C)(C)C(C)(C)C [2,2,3,3-tetramethylhexane], the flash point was 31 °C.
CC(C)C(C)C(C)(C)C (configuration not stated) [2,2,3,4-tetramethylpentane] showed a flash point of 11 °C.
CCCC(C)C(C)(C)C (configuration not stated) [2,2,3-trimethylhexane] showed a flash point of 15 °C.
With CCC(C)C(C)(C)C (configuration not stated) [2,2,3-trimethylpentane] the flash point was -3 °C.
CCC(C)(C)CC(C)(C)C [2,2,4,4-tetramethylhexane] gave a flash point of 31 °C.
With CCC(C)CC(C)(C)C (configuration not stated) [2,2,4-trimethylhexane] the flash point was 13 °C.
CC(C)CC(C)(C)C [2,2,4-trimethylpentane] showed a flash point of -7 °C.
For CC(C)(C)CCC(C)(C)C [2,2,5,5-tetramethylhexane], the flash point was 16 °C.
With CCCCC(C)(C)C [2,2-dimethylhexane] the flash point was -3 °C.
Work on CCCCCCC(C)(C)C [2,2-dimethyloctane] yielded a flash point of 31 °C.
In the case of CCCC(C)(C)C [2,2-dimethylpentane], the flash point is reported as -23 °C.
With CC(C)(C)C#N [2,2-dimethylpropanenitrile] the flash point was 4 °C.
In the case of CCC(C)C(C)(C)C(C)C (configuration not stated) [2,3,3,4-tetramethylhexane], the flash point is reported as 31 °C.
Compound CC(C)C(C)(C)C(C)C [2,3,3,4-tetramethylpentane] has a flash point of 11 °C.
Compound CCC(C)(C)C(C)C [2,3,3-trimethylpentane] has a flash point of 5 °C.
With CCC(C)(C)C(C)C(C)C (configuration not stated) [2,3,4,4-tetramethylhexane] the flash point was 31 °C.
In the case of CCC(C)C(C)C(C)C (configuration not stated) [2,3,4-trimethylhexane], the flash point is reported as 15 °C.
For C=C(C)C(=C)C [2,3-dimethyl-1,3-butadiene], the flash point was -22 °C.
With CC(C)=C(C)C [2,3-dimethyl-2-butene] the flash point was -20 °C.
CCCCC(C)C(C)C (configuration not stated) [2,3-dimethylheptane] showed a flash point of 15 °C.
Work on CCC(C)C(C)C (configuration not stated) [2,3-dimethylpentane] yielded a flash point of -15 °C.
C=C(C)CC(C)(C)C [2,4,4-trimethyl-1-pentene] gave a flash point of -4 °C.
With CC(C)=CC(C)(C)C [2,4,4-trimethyl-2-pentene] the flash point was -1 °C.
Work on CC1CC(C)(C)CC1=O (configuration not stated) [2,4,4-trimethylcyclopentanone] yielded a flash point of 43 °C.
For CC(C)CC(C)C [2,4-dimethylpentane], the flash point was -12 °C.
COC1C=CC(OC)O1 (configuration not stated) [2,5-dimethoxy-2,5-dihydrofuran] gave a flash point of 47 °C.
Work on CC(C)CCC(C)C [2,5-dimethylhexane] yielded a flash point of -2 °C.
For C1=CC2C=CC1C2 [2,5-norbornadiene], the flash point was -11 °C.
CC(C)c1cccc(C(C)C)c1N [2,6-diisopropylaniline] gave a flash point of 123 °C.
With CCC(C)CCCC(C)C (configuration not stated) [2,6-dimethyloctane] the flash point was 34 °C.
For CC(C)(N)CO [2-amino-2-methyl-1-propanol], the flash point was 68 °C.
COC(CBr)OC [2-bromo-1,1-dimethoxyethane] showed a flash point of 51 °C.
CCCCC(C)Br (configuration not stated) [2-bromohexane] showed a flash point of 40 °C.
In the case of CCCC(C)Br (configuration not stated) [2-bromopentane], the flash point is reported as 21 °C.
Cc1ccccc1Br [2-bromotoluene] showed a flash point of 78 °C.
With CCC(C)O (configuration not stated) [2-butanol] the flash point was 24 °C.
For CCC(C)=O [2-butanone], the flash point was -7 °C.
With CC=CC#N [2-butenenitrile] the flash point was 17 °C.
For CCCCC1CCCC1=O (configuration not stated) [2-butylcyclopentanone], the flash point was 68 °C.
In the case of C=CC(=C)Cl [2-chloro-1,3-butadiene], the flash point is reported as -20 °C.
CC(C)(C)Cl [2-chloro-2-methylpropane] gave a flash point of -23 °C.
For CCCC(C)Cl (configuration not stated) [2-chloropentane], the flash point was 1 °C.
Work on Oc1ccccc1Cl [2-chlorophenol] yielded a flash point of 72 °C.
In the case of CC(C)Cl [2-chloropropane], the flash point is reported as -32 °C.
Compound Clc1ccccn1 [2-chloropyridine] has a flash point of 64 °C.
In the case of Cc1ccccc1Cl [2-chlorotoluene], the flash point is reported as 47 °C.
Work on O=C1CCCC1C1CCCC1 (configuration not stated) [2-cyclopentylcyclopentanone] yielded a flash point of 90 °C.
Compound CCCCCCCCC(C)=O [2-decanone] has a flash point of 85 °C.
For CC#CCCCCCCC [2-decyne], the flash point was 53 °C.
CN(C)CCO [2-dimethylaminoethanol] showed a flash point of 41 °C.
CCCCCCCCCCC(C)O (configuration not stated) [2-dodecanol] gave a flash point of 113 °C.
For CCOCCO [2-ethoxyethanol], the flash point was 42 °C.
With CCC(CC)CO [2-ethyl-1-butanol] the flash point was 57 °C.
In the case of CCCCC(CC)CO (configuration not stated) [2-ethyl-1-hexanol], the flash point is reported as 74 °C.
For CCc1cccc(C)c1N [2-ethyl-6-methylaniline], the flash point was 102 °C.
